The term Tmax denotes the time from dosing to the highest level. The term Ki denotes a measure of affinity in units of concentration, obtained from inhibition or displacement.

SMILES strings stand for the structures.

For data set [1], the system named is Wistar rats. The data set is described as follows: Prepulse inhibition (PPI) of acoustic startle response (ASR). Type of data set: in vivo. Conditions: for alteration of ASR or PPI by acute treatment: all doses tested, sc., 1 h after administration. The protocol: (§1) All behavioral experiments were performed 1 h after sc. drugs administration.
The PPI of ASR took place in two ventilated startle chambers (SR-LAB, San Diego Instruments, California, USA) which were calibrated to ensure equivalent stabilimeter sensitivity between the chambers. The test consists of acclimatization and two sessions, as previuosly described (Direnberger et al., [2012]; Palenicek et al., [2016]; Tyls et al., [2016]; Hlozek et al., [2017]; Sichova et al., [2017]; Stefkova et al., [2017]). Briefly, acclimatization was performed 2 days before the test, when drug-free rats were habituated in 5 min session with five presentations of pulse alone stimuli (115 dB/20 ms) over background white noise (75 dB). On the day of test, the compounds or vehicle were administered sc. 1 h prior to PPI/ASR testing. After acclimatization (5 min with 75 dB background noise), the test started with a short session of six 40 ms 125 dB pulse trials to establish baseline ASR. It was followed by the second session consisting of trials presented in a pseudorandom order: (1) single pulse alone: 40 ms 125 dB; (2) trial of prepulse-pulse: 20 ms prepulse of 83 dB presented 30, 60, and 120 ms (average 70 ms) before 40 ms 125 dB pulse; (C) 60 ms no stimulus. Finally, six […] 125 dB pulse trials were delivered. Habituation was calculated by the percentage reduction in ASR from the initial six, to the final six pulse trials. PPI was calculated as: [100–(mean prepulse–pulse trials/mean pulse alone trials)^*100]. ASR was derived from mean pulse alone trials. Animals with an AVG response lower than 10 were excluded from further analysis as non-responders.
To evaluate the effect on the locomotion measured in 5 min intervals, two-way repeated measures ANOVA analysis (factor 1: drug; factor 2: time intervals) was used in software system IBM SPSS version 22. […] The total length of the trajectory over 30-min, thigmotaxis and time in the center, ASR, habituation and PPI were analyzed by one-way ANOVA analysis by using software STATISTICA version 9.0. […]

The subject of the next data set is mice. The settings on record: 3–30 mg/kg; ref Marshell et al., 2014; cited from earlier work.
Data set [2] concerns cannabinoid CB1 receptors. The settings on record: cited from earlier work.
Data set [3] concerns Wistar rats. The data set is described as follows: Open field test (locomotor activity, thigmotaxis, time in center). The data set is classed as in vivo. Conditions: for locomotion in 5 min time intervals (open field): 1 h after administration, vs vehicle. The protocol: as §1
A square black plastic open field arena (68 × 68 × 30 cm) was placed in a soundproof and diffusely lit room. Each of animals was placed into the center of the arena, in a novel unfamiliar environment, and 1 h after drug administration the behavior was video-recorded for 30 min using the system EthoVision Color pro v. 3.0 (Noldus, NL). Locomotor activity was subsequently analyzed within 5 min blocks/time intervals (1–6). The calculation of the data was performed in the EthoVision software and corrected (smoothed) for movement deviations of < 3 cm. Initially total distance traveled per time block was calculated and data were plotted in the graphs. To evaluate the spatial characteristics of the locomotor activity such as thigmotaxis and time spent in the center of arena, the arena was virtually divided into 5 × 5 identical square zones with 16 located peripherally and nine centrally. Frequency (f) of appearances of the animal in different zones of the arena was used to calculate thigmotaxis (i) (i = ∑fperipheralzones / ∑fallzones) which is a number (value varying from 0 to 1) indicating the probability of appearance in peripheral zones. Time spent in the center of the arena (Tcenter) was calculated Tcenter = ∑timecentralzones (Balikova et al., [2014]; Horsley et al., [2016]; Palenicek et al., [2016]; Tyls et al., [2016]; Hlozek et al., [2017]; Sichova et al., [2017]; Stefkova et al., [2017]).
To evaluate the effect on the locomotion measured in 5 min intervals, two-way repeated measures ANOVA analysis (factor 1: drug; factor 2: time intervals) was used in software system IBM SPSS version 22. Significant main effects and interaction two-way repeated measures ANOVAs were followed with pairwise comparisons using independent t-test. For repeated measures ANOVAs, where Mauchly's test of sphericity was significant, Greenhouse-Geisser [Greenhouse-Geisser estimate of sphericity (ε) < 0.75 or Huynh-Feldt (ε) >0.75] correction are reported. Degrees of freedom were rounded to whole number for presentational purposes. For independent t-test, where Levene's test for equality of variances was significant, statistics corrected for unequal variances are given p < 0.05 (two tailed) was considered the minimal criterion for statistical significance. For multiple comparisons, t-test was used with Bonferroni correction. The total length of the trajectory over 30-min, thigmotaxis and time in the center, ASR, habituation and PPI were analyzed by one-way ANOVA analysis by using software STATISTICA version 9.0. Where appropriate, ANOVA analyses were followed by the Tukey post-hoc test. Statistical significance was set at p < 0.05 for all analyses.

A short description of data set [4]: Serum levels of JWH-073 and JWH-210 after sc. administration (LC-MS).
The nature of data set [5]: Serum levels of Δ^9-THC and its metabolites after sc. administration (GC-MS). The settings on record: after Δ^9-THC 3 mg/kg sc.; for detectability in serum over the measurement intervals: 30 min, 1, 2, 4, 8, 24 h; for maximum serum concentration (Mean ± SEM): n = 6.
Setting [6] is: 3 mg/kg sc., vs control, p < 0.01.

`CCCCn1cc(C(=O)c2cccc3ccccc23)c2ccccc21` [JWH-073, (1-butylindol-3-yl)-naphthalen-1-ylmethanone]: the “alteration of ASR or PPI by acute treatment” value in the data set with Wistar rats [1] is “did not find significant alteration”. Besides, the locomotor activity result in the data set on mice is “dose-dependent reduced locomotor activity”. Besides, in data set [2] (vs Δ^9-THC, ref Wiley et al., 1998, Aung et al., 2000, Brents et al., 2012), the “CB1 binding affinity relative to Δ^9-THC (fold higher)” value is recorded as “four-fold higher”. Further, the “locomotion in 5 min time intervals (open field)” value in the data set on Wistar rats [3] (0.1 mg/kg sc.) is “significantly increased locomotor activity at the 5-10 and 10-15 min time blocks”; in the data set on Wistar rats [3] (0.5 mg/kg sc.), “increased locomotion at 0–5, 5–10, 10–15, and 20–25 min onset”; with Wistar rats [3] (5 mg/kg sc.) it was “reduced the locomotor activity at 15–20 min time block”. The “total length of the trajectory over 30-min (total locomotor activity)” value in the data set on Wistar rats [3] (0.5 mg/kg sc., vs control group, p < 0.05) was “significantly increased locomotor activity”. Also, the “thigmotaxis (probability of appearance in peripheral zones)” value in the data set on Wistar rats [3] (0.1, 0.5 and 5 mg/kg sc.) is “neither JWH-073 nor JWH-210 modified the thigmotaxis”. The “time spent in the central zones of the open field” value in the data set with Wistar rats [3] (0.1, 0.5 and 5 mg/kg sc.) is “neither JWH-073 nor JWH-210 modified”. Also, the “detectability in serum over the measurement intervals” value in data set [4] (0.5 mg/kg sc., 30 min, 1, 2, 4, 8, 24 h) is listed as “detectable at all measurement intervals”. Further, in data set [4] (0.5 mg/kg sc., rat serum, n = 8), the “maximum serum concentration (Mean ± SEM)” value was found to be 1.84 ± 0.06 ng/mL. The Tmax in data set [4] (male, Wistar, rat, serum, sc, 0.5 mg/kg) amounted to 4 h. In data set [4] (male, Wistar, rat, serum, subcutaneous, 0.5 mg/kg), this molecule gave a concentration at 24 h of 0.41 ± 0.19 ng/mL.

For the molecule `CCCCCc1cc(O)c2c(c1)OC(C)(C)[C@@H]1CCC(C(=O)O)=C[C@@H]21` [THC-COOH], the “detectability in serum over the measurement intervals” value in data set [5] is “detectable as Δ^9-THC at all intervals”. Moreover, in data set [5] (rat serum), the “time of maximum serum concentration” value turned out to be 1 h and the “maximum serum concentration (Mean ± SEM)” value stood at 10.5 ± 7.27 ng/mL.

For `CCCCCc1cc(O)c2c(c1)OC(C)(C)[C@@H]1CCC(C)=C[C@@H]21` [Δ^9-THC, Δ9-tetrahydrocannabinol], the “prepulse inhibition (PPI), post-hoc” value with Wistar rats [1] (1 mg/kg sc., p = 0.06) is reported as “slight not significant decrease of PPI”. Moreover, in the data set with Wistar rats [1], the “alteration of ASR or PPI by acute treatment” value was “did not find significant alteration”. Also, the Ki in data set [2] (ref Huffman et al., 2005, read-out: Ki, affinity for central and peripheral cannabinoid CB1 receptors) is 41 ± 2 nM. In addition, in the data set on Wistar rats [3] (setting [6]), the “thigmotaxis (probability of appearance in peripheral zones)” value is reported as “decreased thigmotaxis” and the “time spent in the center of the open field arena” value is “increased time spent in central zone”. Moreover, in the data set on Wistar rats [3] (1 or 3 mg/kg sc.), the “total trajectory in the open field test” value is “did not affect the total trajectory” and the “locomotion in 5 min time intervals (open field)” value is “neither a main effect of drug nor drug × time interval interaction were found”. The “detectability in serum over the measurement intervals” value in data set [5] is on record as “detectable as Δ^9-THC at all intervals”. Moreover, in data set [5] (rat serum), the “time of maximum serum concentration” value was determined as 1 h, the “time of second serum peak” value amounted to 8 h and the “maximum serum concentration (Mean ± SEM)” value came to 12.1 ± 3.06 ng/mL.
